Experimental findings from PubChem BioAssay (NCI) are described below.

Among the test systems are A549 NSCLC; CAKI-1 renal; HCT-116 colon; HCT-15 colon; HOP-92 NSCLC; NCI-H226 lung; NCI-H23 lung; OVCAR-8 ovarian; RPMI-8226 leukemia; SF-268 CNS; SF-295 CNS; SN12C renal; U251 CNS; UACC-257 melanoma; UACC-62 melanoma.
Holding throughout (assay): NCI tumour cell line growth inhibition, 48 h

Each structure is given as a SMILES string.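 A five-concentration, 48-hour dose response in 96-well plates underlies each endpoint, interpolated linearly between surrounding concentrations. TGI: concentration producing complete growth inhibition.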 Where a SMILES comes first, the peptide text is derived from it. [ ]: non-standard residue; d: D form. The star is where a group is joined. ξ: configuration not given here. ξNMeF = CNC(Cc1ccccc1)C(=O)O; NMeV = CN[C@H](C(=O)O)C(C)C; Boc = CC(C)(C)OC(=O)*; OBn = c1ccc(CO*)cc1 Bounds are passed on as bounds.

Consider `CN1CCN(c2cc3nc(-c4ccc(Cl)cc4)[nH]c3cc2F)CC1`, for which the TGI is more than 59 µM in the test on A549 NSCLC; 73.4 µM with CAKI-1 renal; more than 54.4 µM in the test on HCT-116 colon; 17.9 µM in the test on HCT-15 colon; more than 70.4 µM in the test on HOP-92 NSCLC; 33.9 µM in the test on NCI-H226 lung. Further, the TGI in the test on NCI-H23 lung was 34.2 µM; in the test with OVCAR-8 ovarian it was more than 100 µM; in the test with RPMI-8226 leukemia, 41.4 µM; with SF-268 CNS, 51.3 µM; in the test with SF-295 CNS, 28.8 µM; in the test with SN12C renal, more than 100 µM. The figures for the TGI with U251 CNS, in the test with UACC-257 melanoma and in the test with UACC-62 melanoma were more than 75.9 µM, 26.2 µM and 18.9 µM, respectively.
`CN1CCC2(c3ccccc3)CC(=O)/C(=C/c3ccc(Cl)c(Cl)c3)C1C2` (stereo not given): the TGI with A549 NSCLC was 10.9 µM; in the test with CAKI-1 renal, 13.8 µM; in the test on HCT-116 colon it was more than 21 µM; in the test on HCT-15 colon, 4.59 µM; with HOP-92 NSCLC, 7.33 µM; with NCI-H226 lung, 4.69 µM. Further, the TGI in the test with NCI-H23 lung was determined as 8.45 µM; in the test with OVCAR-8 ovarian it was 4.64 µM; with RPMI-8226 leukemia, 5.13 µM; in the test with SF-268 CNS it was 3.73 µM; in the test on SF-295 CNS, 6.52 µM; in the test with SN12C renal it was 3.72 µM. Moreover, the figures for the TGI in the test with U251 CNS, in the test on UACC-257 melanoma and in the test with UACC-62 melanoma were 3.47 µM, 23.3 µM and 3 µM, respectively.
`CCCCC(=O)/C=c1/cc(C)[nH]c2cccc3cnn1c32`: the TGI in the test on A549 NSCLC, in the test with CAKI-1 renal, with HCT-116 colon, in the test on HCT-15 colon, in the test with HOP-92 NSCLC and with NCI-H226 lung was more than 100 µM in each case. Further, the TGI in the test on NCI-H23 lung, in the test on OVCAR-8 ovarian, in the test with RPMI-8226 leukemia, with SF-268 CNS, with SF-295 CNS and in the test on SN12C renal was more than 100 µM throughout. Besides, the TGI in the test with U251 CNS, in the test on UACC-257 melanoma and with UACC-62 melanoma was more than 100 µM each time.
Turning to `O=Cc1ccc2ccocc1-2`, the TGI in the test with A549 NSCLC, in the test on CAKI-1 renal, in the test on HCT-116 colon, with HCT-15 colon, in the test on HOP-92 NSCLC and with NCI-H226 lung was more than 100 µM each time. Besides, the TGI in the test with NCI-H23 lung, with OVCAR-8 ovarian, with RPMI-8226 leukemia, in the test with SF-268 CNS, in the test with SF-295 CNS and in the test with SN12C renal was more than 100 µM each time. The TGI with U251 CNS, with UACC-257 melanoma and with UACC-62 melanoma was more than 100 µM in each case.
Turning to `CC(C)[C@@H](C(=O)N(C)[C@H](C(=O)N1CCC[C@H]1C(=O)OCc1ccccc1)C(C)C)N(C)C(=O)C(Cc1ccccc1)N(C)C(=O)[C@H](NC(=O)OC(C)(C)C)C(C)C` (stereo not given in full) (Boc-[dV][ξNMeF][NMeV][NMeV]P-OBn), the TGI in the test on A549 NSCLC was more than 31.6 µM; in the test on CAKI-1 renal, more than 31.6 µM; in the test with HCT-116 colon it was more than 31.6 µM; in the test with HCT-15 colon, more than 31.6 µM; in the test on HOP-92 NSCLC, more than 31.6 µM; in the test with NCI-H226 lung, more than 100 µM. Besides, the TGI in the test with NCI-H23 lung is more than 100 µM; in the test on OVCAR-8 ovarian, more than 31.6 µM; in the test with RPMI-8226 leukemia, more than 31.6 µM; in the test on SF-268 CNS it was more than 31.6 µM; in the test on SF-295 CNS, more than 31.6 µM; with SN12C renal, more than 100 µM. Besides, the TGI in the test on U251 CNS, in the test with UACC-257 melanoma and with UACC-62 melanoma was more than 31.6 µM each time.
Take `Cc1ccc2[nH]c3c(c(=O)n(C)c(=O)n3C)c2c1`: the TGI in the test on A549 NSCLC, with CAKI-1 renal, in the test with HCT-116 colon, with HCT-15 colon, in the test with HOP-92 NSCLC and in the test on NCI-H226 lung was more than 100 µM throughout. Further, the TGI in the test on NCI-H23 lung, in the test on OVCAR-8 ovarian, with RPMI-8226 leukemia, in the test with SF-268 CNS, in the test with SF-295 CNS and with SN12C renal was more than 100 µM each time. In addition, the TGI in the test on U251 CNS, in the test with UACC-257 melanoma and in the test with UACC-62 melanoma was more than 100 µM each time.
`Cc1cc(N2CCOCC2)nc2ccc(Cc3ccc4nc(N5CCOCC5)cc(C)c4c3)cc12`: the TGI in the test with A549 NSCLC is more than 100 µM; with CAKI-1 renal, more than 100 µM; in the test with HCT-116 colon it was 54.7 µM; in the test with HCT-15 colon, more than 100 µM; in the test on HOP-92 NSCLC, more than 100 µM; with NCI-H226 lung, more than 100 µM. In addition, the TGI in the test on NCI-H23 lung, in the test on OVCAR-8 ovarian, in the test on RPMI-8226 leukemia, with SF-268 CNS, in the test with SF-295 CNS and in the test on SN12C renal was more than 100 µM throughout. Further, the TGI with U251 CNS is 88.5 µM; with UACC-257 melanoma, more than 100 µM; with UACC-62 melanoma, more than 100 µM.
With `CCc1n[nH]c(=O)n1CC`, the TGI in the test on A549 NSCLC, in the test on CAKI-1 renal, in the test with HCT-116 colon, in the test with HCT-15 colon, in the test with HOP-92 NSCLC and with NCI-H226 lung was more than 100 µM throughout. For the same compound, the TGI in the test on NCI-H23 lung, in the test with OVCAR-8 ovarian, with RPMI-8226 leukemia, in the test with SF-268 CNS, in the test with SF-295 CNS and in the test on SN12C renal was more than 100 µM throughout. Also, the TGI with U251 CNS, in the test on UACC-257 melanoma and with UACC-62 melanoma was more than 100 µM each time.
